“And” between values parts separate entries of the source, which are not always exact repeats. Identical values can stand only once.
Assays:
[1] = test system: Limb mesenchymal cells; conditions: 10 μg/ml, literature; cited from earlier work
[2] = test system: 1064SK primary human foreskin fibroblasts; assay: Fibroblast adhesion assay (methylene blue, A620); type: cell-based
Experimental: The ability of Cyr61 to mediate cell adhesion in normal fibroblasts was investigated. Microtiter wells were coated with purified recombinant Cyr61 protein, and 1064SK primary human foreskin fibroblasts were allowed to adhere under serum-free conditions. […] 50 μl cell suspensions were plated on microtiter wells coated with varying concentrations (0.5-5.0 μg/ml) of Cyr61 protein. After incubation at 37° C. for 30 minutes, adherent cells were fixed and stained with methylene blue.
In another experiment, microtiter wells were coated with either BSA, Cyr61 (2 μg/ml), or vitronectin (VN; 0.5 μg/ml) and blocked with affinity-purified anti-Cyr61 antibodies for one hour at 37° C. before 1064SK cells were plated.
The effects of divalent cations in cell adhesion to Cyr61 was also investigated. […] Data are means from triplicate determinations. […] Inhibition by Ca^2+ is characteristic of adhesion through some members of the β1 family of integrins, including receptors that bind type I collagen, laminin, and vitronectin (integrins α2β1, α6β1, and αVβ1) in fibroblasts, as well as the lymphocyte-specific integrin αLβ2.
The effects of RGD peptides on Cyr61-mediated fibroblast binding was tested by plating cells in wells coated with Cyr61 (2 μg/ml). Type I collagen (2 μg/ml) or vitronectin (0.5 μg/ml), 2 mM GRGDSP or GRGESP peptide was then added.
Cells were also pre-incubated with 40 μg/ml monoclonal antibodies against the integrin α5 or the integrin αV subunits at room temperature for 30 minutes, then plated on wells coated with Cyr61 (2 μg/ml), vitronectin (0.5 μg/ml) or fibronectin (FN, 1 μg/ml). […] The data are means, representative of three experiments.
The 1064 SK cells were also analyzed using the monoclonal antibody JBIA, which binds the β1 integrin subunit. Cells were pre-incubated with the antibody (50 μg/ml) before plating on microtiter wells coated with Cyr61 (2 μg/ml), Type I collagen (2 μg/ml), or vitronectin (0.5 μg/ml). […] Data are means, representative of three experiments.
To identify the specific β1 integrin that mediates fibroblast adhesion to Cyr61, the inhibitory effects of function-blocking monoclonal antibodies were tested against various integrin α subunits. […] The data are means, representative of at least three experiments.

[3] = test system: Bovine aortic smooth muscle cells (BASM cells); assay: Smooth muscle cell adhesion assay; type: cell-based
Experimental: Cell adhesion assays were also performed on smooth muscle cells. Bovine aortic smooth muscle cells (BASM cells) were subjected to the cell adhesion assay described above in the context of assaying fibroblasts. […] To identify particular integrin, receptors mediating the Cyr61 induction of BASM cell adhesion, antibody studies were conducted using anti-integrin antibodies recognizing specific integrins. […] Thus, integrin α6β1 mediates Cyr61-induced adhesion of smooth muscle cells. It is expected that Cyr61 polypeptides that include the heparan binding domain IV will induce adhesion of any mammalian smooth muscle cell.

[4] = test system: endothelial cells; assay: Peptide inhibition of cell adhesion to Cyr61, endothelial cells; type: cell-based
Description: (§1) To localize the relevant domain still further, several overlapping peptides were synthesized. The peptides, each having a sequence set forth in one of SEQ ID NOS:33-38, show significant similarity to an ECM signaling molecule such as mouse Cyr61 (SEQ ID NO:2) or human Cyr61 (SEQ ID NO:4). These peptides were then separately tested for their capacities to inhibit Cyr61 adhesion to endothelial cells or fibroblasts. Peptides were separately added at various concentrations to Cyr61-coated wells containing endothelial cells or fibroblasts, as described above. The peptide designated TSP1 (SEQ ID NO:33) inhibited Cyr61 adhesion to endothelial cells or fibroblasts at concentrations of 25 μM or higher.
To determine if TSP1 was selectively inhibiting Cyr61 binding to […] or α6β1, two integrins found on endothelial cells that bind Cyr61, specific monoclonal antibody blocking studies were performed. These studies involved the separate addition of monoclonal antibody GoH3 (α6-specific, including α6β1; see Example 29) or LM609 ([…]; see Example 29) to cells prior to addition of the mixture to Cyr61-coated wells in the presence or absence of the peptide under study.

[5] = test system: endothelial cells; assay: Matrigel tubule formation assay; type: cell-based
Experimental: Endothelial cells interacting with Cyr61 require integrin αVβ3 for cell migration and cell survival. However, to form tubules in vitro in a matrigel, integrin α6β1 is required. Thus, the ability of TSP1 to inhibit tubule formation in vitro using a matrigel assay as described in Example 15 (and as known in the art, Davis et al., Exp. Cell Research 216:113-123 (1995), incorporated herein by reference in its entirety) was performed.

[6] = test system: fibroblasts; assay: Adhesion to immobilized peptides or GST-domain fusions, fibroblasts; type: cell-based; conditions: no immobilized Cyr61
Description: (§2) To further localize domains involved in angiogenesis, including endothelial cell migration, the coding regions for domains I, II and III of Cyr61 were separately fused to a coding sequence for glutathione S-transferase (GST), again using conventional technology. The individual fusion constructs were introduced into bacterial hosts, expressed, and purified with glutathione columns, using conventional techniques.
(§3) To confirm that the TSP1 peptide was inhibiting Cyr61 activity by directly interacting with the α6β1, integrin, TSP1 and the peptides collectively having SEQ ID NOS:34-38 were used in the aforementioned cell adhesion assay in the absence of immobilized Cyr61. In these assays, wells were coated with one of the peptides and the immobilized peptides were then separately exposed to either endothelial cells (resting or activated) or fibroblasts. […] None of the other tested peptides (having SEQ ID NOS:34-38, collectively) supported cell adhesion in these assays. However, it is expected that peptides comprising sequences from domain II (von Willebrand Factor domain) of Cyr61 will inhibit the interaction between Cyr61 and the αVβ3 integrin receptor, thereby inhibiting the participation of endothelial cells in the process of angiogenesis. […]

[7] = test system: endothelial cells; assay: Adhesion to immobilized peptides or GST-domain fusions, endothelial cells; type: cell-based; conditions: no immobilized Cyr61
Description: as §2, §3

[8] = test system: fibroblasts; assay: Peptide inhibition of cell adhesion to Cyr61, fibroblasts; type: cell-based; conditions: Cyr61-coated wells
Description: as §1

[9] = test system: HUVE cells; assay: HUVE cell attachment to murine Cyr61-coated plates; type: cell-based, human
Experimental: Another embodiment of the invention is directed to the use of Cyr61 to mediate cellular attachment to the extracellular matrix. Induction of cellular adhesion was investigated using murine Cyr61, fibronectin, and bovine serum albumin (BSA). Immunological 96-well plates (Falcon brand) were coated with 50 μl of 0.1% BSA in PBS at 4° C. in the presence of 0-30 μg/ml concentrations of murine Cyr61 or fibronectin. After two hours exposure to the coating solution, non-diluted immune or pre-immune antisera (30 μl/well), or affinity-purified anti-Cyr61 antibodies were added. For some wells, the coating mixture was adjusted to 10 mM DTT or 100 mM HCl. After 16 hours incubation, the coating solution was removed and the well surface was blocked with 1% BSA in phosphate-buffered saline (PBS) for 1 hour at room temperature. HUVE cells were plated in Ham's complete F12K medium [GIBCO-BRL, Inc.; Ham, Proc. Natl. Acacd. Sci. (USA) 53:786 (1965)] at 5×10^3-10^4 cells/well. Cycloheximide was added to 100 μg/ml immediately before plating and monensin was added to 1 μM 14 hours before plating. After a 2-hour incubation at 37° C., the wells were washed with PBS and attached cells were fixed and stained with methylene blue. The attachment efficiency was determined by quantitative dye extraction and measurement of the extract absorbance at 650 nm. Oliver et al., J. Cell. Sci. 92:513-518 (1989).

[10] = test system: Limb mesenchymal cells; assay: Limb bud mesenchymal cell attachment; type: cell-based, mouse; conditions: within 1 hour of plating
Experimental: Cyr61, fibronectin (Gibco), or tenascin (Gibco) were diluted in 0.1% protease-free bovine serum albumin (BSA) in PBS with 0.5 mM PMSF, to a final concentrations of 10 or 50 μg/ml. A 10 μl drop/well was placed in a non-tissue culture treated 24-well plate (Corning), and incubated at room temperature for 2 hours. The wells were blocked with 1% BSA in PBS for 1 hour at room temperature, and rinsed with serum-free MEM (Modified Eagle's Medium). Limb mesenchymal cells, suspended at 5×10^5 cell/ml in serum-free MEM, were added at a volume of 400 μl/well, and incubated at 37° C., 5% CO2 for 1 or 3 hours. At each time point, the cell suspension was removed, the wells were rinsed with MEM and the remaining adherent cells were photographed.

[11] = test system: endothelial cells; conditions: thrombospondin on endothelial cells; fibronectin cell type not stated; cited from earlier work

For heparin, the “increase of chondrogenesis in micromass cultures” value [1] is listed as 2 fold, the “levels having no effect on cell adhesion to fibronectin” value ([2]; fibronectin 1 μg/ml) is listed as “up to 1000 μg/ml” and the “level completely inhibiting cell adhesion to Cyr61” value ([2]; soluble, in cell suspension) is listed as at least 0.1 µg/mL. For the same substance, the “level that detectably inhibited binding to Cyr61” value ([2]; soluble, in cell suspension) was 1 ng/mL and the “effect of agent on Cyr61-induced BASM cell adhesion” value [3] was “inhibited Cyr61-induced adhesion”.

For “H 2N-GQKCIVQTTSWSQCSKS-CO2H (H-GQKCIVQTTSWSQCSKS-OH; cysteine pairing not given here) [TSP1]”, the “concentration inhibiting Cyr61 adhesion to endothelial cells” value ([4]; Cyr61-coated wells) was at least 25 µM, the “effect on Cyr61 binding to the α6β1 integrin” value ([4]; GoH3/LM609 blocking studies) was “inhibitied Cyr61 binding to the α6β1 integrin” and the “effect on Cyr61 binding to αVβ3” value ([4]; GoH3/LM609 blocking studies) was “did not inhibit Cyr61 binding to αVβ3”. For the same substance, the “tubule formation in matrigel” value [5] was “inhibited tubule formation”, the “adhesion of fibroblasts to immobilized peptide or fusion” value [6] was “supported adhesion of endothelial cells and fibroblasts” and the “adhesion of endothelial cells to immobilized peptide or fusion” value [7] was “supported adhesion of endothelial cells and fibroblasts”. For the same substance, the “concentration inhibiting Cyr61 adhesion to fibroblasts” value [8] was at least 25 µM.

In the case of fibronectin, the “HUVE cell attachment, A650” value ([9]; coating 1 μg/ml) is reported as 0.1 A650, the “HUVE cell attachment, A650” value ([9]; coating 30 μg/ml) is reported as 0.9 A650 and the “attachment morphology of limb mesenchymal cells” value [10] is reported as “attached uniformly and started to spread”. For the same substance, the “concentration with chemotactic effect” value [11] was 1 to 30 µg/mL and the “1064SK adhesion to coated protein, nothing added” value ([2]; Cyr61 2, VN 0.5, Type I collagen 2, fibronectin 1, laminin 5 μg/ml) was 0.72 A620 and 0.74 A620.
